Here are results for five compounds from patent US12263248B2, “Compounds and compositions for intracellular delivery of therapeutic agents” (ModernaTX, Inc., priority 2018, dated 2025).

Data set [1] can be described thus: Apparent (surface) pKa of the LNP formulation (TNS assay). The format is physicochemical. In a few lines: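 Fluorescence of TNS probe added to LNP samples (mRNA 0.04 mg/mL) was read across 21 buffers of pH about 3-12, triplicate per pH. The inflection point of the sigmoidal fluorescence-vs-pH curve, […], gives apparent pKa; method validated in 1× PBS and Tris/sucrose buffer.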

The test system of the next data set is luciferase (Luc) mRNA. As to the kind of experiment: Luc expression, whole body bioluminescence after intravenous administration to mice. The format is in vivo. Conditions: for Lipid/MC3 Luc expression: 0.5 mpk dose to mouse, 6 hours after administration; for Fold increase in total body Luc Flux relative to MC3 at 6 h: Table 3A, i.v. administration; for Novel lipid/MC3 ratio, 6 hr. timepoint, i.v. / Novel lipid/MC3 expression ratio, 6 hr. time point, i.v.: luciferase; for Novel lipid/MC3 ratio, 6 hr. timepoint, i.v.: relative to MC3, Table 3G; for Novel lipid/MC3 expression ratio, 6 hr. time point, i.v.: relative to MC3 formulation; for Total Flux 3 hours / Total Flux 6 hours / Total Flux 24 hours / luciferase activity relative to MC3 LNP control: mice; for Total Flux 3 hours / Total Flux 6 hours / Total Flux 24 hours: i.v., Luc mRNA; for luciferase activity relative to MC3 LNP control: 0.5 mg/kg (mRNA dose). In a few lines: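 Bioluminescence, read as region-of-interest total flux at 3, 6 and 24 h, followed a single 0.5 mg/kg intravenous dose of Luc mRNA-loaded nanoparticles in mice (n=6). Luciferin substrate (200 μL, 15 mg/mL in PBS) was injected intraperitoneally into CD-1 mice 15 minutes ahead of each imaging point.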

A short description of data set [2]: Particle size and polydispersity index of nanoparticle compositions (Zetasizer Nano ZS). The format is physicochemical. Conditions: for PDI (Polydispersity index): lipid nanoparticle, ±SD within one assay run (Table 37). In a few lines: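 Zetasizer Nano ZS; samples in 1×PBS; read-out: particle size plus polydispersity index.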
The next data set has as its system IL-6, IP-10. As to the kind of experiment: Cytokine induction in mice upon intravenous administration. The format is in vivo. The arrangement: Cytokine induction IL-6 / Cytokine induction IP-10: unit not given here. Conditions: 0.5 mpk, 6 hours; for Cytokine induction IL-6 / Cytokine induction IP-10: intravenous. The gist of the method:
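IL-6 and IP-10 concentrations determined 6 hours after a single intravenous 0.5 mpk dose of lipid nanoparticle formulation in mice, with MC3 and PBS as comparators.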

Data set [3] can be described thus: Encapsulation efficiency of RNA (QUANT-IT RIBOGREEN RNA assay). Conditions: for % Encapsulation: lipid nanoparticle, ±SD within one assay run (Table 37); for EE: nanoparticle composition with hEPO mRNA (Table 30). The format is physicochemical. In a few lines: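 RiboGreen fluorescence (ex ~480, em ~520 nm) compared between intact samples and Triton X-100-lysed samples after 15 min at 37 °C in TE buffer, pH 7.5. Percent free RNA is the blank-corrected intact/disrupted ratio.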

Where [4] appears, read: lipid nanoparticle, ±SD within one assay run (Table 37).
Where [5] appears, read: Table 1A, lipid:DSPC:cholesterol:PEG-DMG 50:10:38.5:1.5 mol %.
The mark [6] stands for this setting: Table 1B, formulated with hEPO mRNA.
Where [7] appears, read: Table 1C, compositions for subcutaneous administration.
The mark [8] stands for this setting: Table 1D, for subcutaneous administration, # formulated with hEPO mRNA.
[9] abbreviates: nanoparticle composition with hEPO mRNA (Table 30).

The structures appear in SMILES notation. “Also recorded” adds a separate entry of the source.

In the case of `CCCCCCCCCCCOC(=O)CCCCCN(CCO)CCCCCCCC(=O)OC(CCCCCCCC)CCCCCCCC` [Compound 25, Heptadecan-9-yl 8-((2-hydroxyethyl)(6-oxo-6-(undecyloxy)hexyl)amino)octanoate], in data set [1] (Table 1A), the pKa is 6.68. Further, the pKa in data set [1] (setting [4]) stood at 6.68 ± 0.29. Also, in the data set on luciferase (Luc) mRNA, the “Lipid/MC3 Luc expression” value came to 1.89 and the “Fold increase in total body Luc Flux relative to MC3 at 6 h” value is recorded as 1.89. For the same compound, in the data set on luciferase (Luc) mRNA (intravenous), the “Novel lipid/MC3 ratio, 6 hr. timepoint, i.v.” value is given as 1.89; the “Novel lipid/MC3 expression ratio, 6 hr. time point, i.v.” value is recorded as 1.89; the “luciferase activity relative to MC3 LNP control” value is recorded as “higher expression compared to MC3”. In the data set with luciferase (Luc) mRNA (0.5 mg/kg), the “Total Flux 3 hours” value was found to be 2.27E+10, the “Total Flux 6 hours” value is 1.59E+10 and the “Total Flux 24 hours” value is 9.77E+08. This compound also registered a PDI in data set [2] (Table 1A) of 0.10. In data set [2] (setting [5]), the “Size (nm)” value was 85.8 nm. In addition, in data set [2] (setting [6]), the PDI is reported as 0.14 and the “Size (nm)” value amounted to 69.7 nm. In data set [2] (setting [7]), the PDI is recorded as 0.16 and the “Size (nm)” value came out at 76.3 nm. In addition, in data set [2] (setting [8]), the PDI is recorded as 0.13 and the “Size (nm)” value is given as 77.6 nm. Moreover, in data set [2], the “PDI (Polydispersity index)” value was found to be 0.10 ± 0.05. In data set [2] (setting [9]), this compound had a PDI of 0.230. In the data set on IL-6, IP-10, the “Cytokine induction IL-6” value stood at 233.45 and the “Cytokine induction IP-10” value worked out at 1194.13. In data set [3] (Table 1A), the “EE (%)” value turned out to be 95.80%. In addition, in data set [3] (setting [6]), the “EE (%)” value was found to be 97.92%. Further, the “% EE” value in data set [3] (setting [7]) stood at 98.1%. In data set [3] (setting [8]), the “% EE” value turned out to be 97.8%. Further, in data set [3], the “% Encapsulation” value is 95.8 ± 1.0% and the EE turned out to be 87.01%.
Turning to `CCCCCC/C=C\COC(=O)CCCCCCCN(CCO)CCCCCCCC(=O)OC(CCCCCCCC)CCCCCCCC` [Compound 24, Heptadecan-9-yl (Z)-8_((2-hydroxyethyl) (8-(non-2-en-1-yloxy)-8-oxooctyl)amino)octanoate], in data set [1] (Table 1A), the pKa is 6.71. Also, the “Fold increase in total body Luc Flux relative to MC3 at 6 h” value in the data set with luciferase (Luc) mRNA was found to be 2.67. Besides, in the data set with luciferase (Luc) mRNA (intravenous), the “Novel lipid/MC3 ratio, 6 hr. timepoint, i.v.” value came out at 2.67 and the “Novel lipid/MC3 expression ratio, 6 hr. time point, i.v.” value is 2.67. In the data set on luciferase (Luc) mRNA (0.5 mg/kg), the “Total Flux 3 hours” value was determined as 1.72E+10, the “Total Flux 6 hours” value turned out to be 2.25E+10 and the “Total Flux 24 hours” value was 1.83E+09. This compound yielded a PDI in data set [2] (Table 1A) of 0.13. In addition, the “Size (nm)” value in data set [2] (setting [5]) was 99.5 nm. In data set [2] (setting [7]), the PDI is 0.17 and the “Size (nm)” value is reported as 88.5 nm. Also, in the data set with IL-6, IP-10, the “Cytokine induction IL-6” value was 163.53 and the “Cytokine induction IP-10” value is 1172.93. In data set [3] (Table 1A), the “EE (%)” value worked out at 97.16%. Moreover, in data set [3] (setting [7]), the “% EE” value was determined as 90.5%.
With `CCCCCCCCCOC(=O)CCCN(CCO)CCCCCCCC(=O)OC(CCCCCCCC)CCCCCCCC` [Compound 26, Heptadecan-9-yl 8-((2-hydroxyethyl)(4-(nonyloxy)-4-oxobutyl)amino) octanoate], the pKa in data set [1] (Table 1A) turned out to be 6.64. In addition, the pKa in data set [1] (Table 6) is 6.64. In addition, the pKa in data set [1] (setting [4]) turned out to be 6.64 ± 0.14. In the data set with luciferase (Luc) mRNA, the “Lipid/MC3 Luc expression” value is 4.24 and the “Fold increase in total body Luc Flux relative to MC3 at 6 h” value was 4.24. Besides, the “fold increase in Luc expression over MC3 formulations” value in the data set on luciferase (Luc) mRNA (intravenous administration, in words) is recorded as “highest fold increase”. The “Fold increase in Luc expression relative to MC3, Intravenous (0.5 mpk dose)” value with luciferase (Luc) mRNA (intravenous, 0.5 mpk) came out at 4.24. Also, in the data set on luciferase (Luc) mRNA (0.5 mg/kg), the “Total Flux 3 hours” value was determined as 6.75E+10, the “Total Flux 6 hours” value worked out at 1.57E+10 and the “Total Flux 24 hours” value is 1.54E+09. The “luciferase activity relative to MC3 LNP control” value in the data set on luciferase (Luc) mRNA (intravenous, 0.5 mg/kg) is listed as “higher expression compared to MC3; also recorded: highest luciferase activity of the series”. In data set [2] (Table 1A), the PDI stood at 0.16. The “Size (nm)” value in data set [2] (setting [5]) is given as 91.9 nm. The “PDI (Polydispersity index)” value in data set [2] amounted to 0.16 ± 0.03. This compound also returned a PDI in data set [2] (setting [9]) of 0.120. In the data set with IL-6, IP-10 (i.v., in words), the IL-6 induction entry is recorded as “highest” and the IP-10 induction entry was “highest”. In addition, in the data set with IL-6, IP-10, the “Cytokine induction IL-6” value was determined as 273.56 and the “Cytokine induction IP-10” value is listed as 2330.01. The “EE (%)” value in data set [3] (Table 1A) was determined as 97.43%. In addition, in data set [3], the “% Encapsulation” value stood at 97.4 ± 0.2% and the EE is 95.60%.
Consider `CCCCCCCCCN(CCCO)CCCCCCCC(=O)OC(CCCCCCCC)CCCCCCCC` [Compound 7, Heptadecan-9-yl 8-((3-hydroxypropyl)(nonyl)amino)octanoate], for which, in data set [1] (Table 1A), the pKa worked out at 6.75. Besides, the “App. pKa” value in data set [1] (Table 3F) came out at 6.74. In the data set on luciferase (Luc) mRNA (0.5 mg/kg), the “Total Flux 3 hours” value stood at 4.13E+10, the “Total Flux 6 hours” value is 4.03E+10 and the “Total Flux 24 hours” value stood at 1.68E+09. This compound gave a PDI in data set [2] (Table 1A) of 0.22. For the same compound, in data set [2] (setting [5]), the “Size (nm)” value amounted to 118.9 nm. The IP-10 induction entry with IL-6, IP-10 (i.v., in words) is “highest”. Further, in the data set on IL-6, IP-10, the “Cytokine induction IL-6” value was determined as 116.35 and the “Cytokine induction IP-10” value is on record as 4959.16. For the same compound, the “EE (%)” value in data set [3] (Table 1A) was found to be 86.10%.
Take `CCCCCCCCCOC(=O)CCCCCCCN(CCO)CCCCCCCC(=O)N(CCCCCCCC)CCCCCCCC` [Compound 144, Nonyl 8-((8-(dioctylamino)-8-oxooctyl)(2-hydroxyethyl)amino)octanoate]: the pKa in data set [1] (Table 1A) amounted to 7.09. Further, in the data set on luciferase (Luc) mRNA (0.5 mg/kg), the “Total Flux 3 hours” value stood at 9.50E+09, the “Total Flux 6 hours” value is recorded as 1.82E+09 and the “Total Flux 24 hours” value was found to be 3.36E+08. This compound also came in with a PDI in data set [2] (Table 1A) of 0.22. The “Size (nm)” value in data set [2] (setting [5]) stood at 135.9 nm. In the data set on IL-6, IP-10, the “Cytokine induction IL-6” value worked out at 319.46 and the “Cytokine induction IP-10” value is recorded as 4220.55. In addition, the “EE (%)” value in data set [3] (Table 1A) turned out to be 90.3%.
